According to patent US4125716A, “Methoxymethyl esters of substituted imidazolidinyl-3-methyl-3-cephem-4-carboxylic acids” (Bristol-Myers Company, priority 1977, dated 1978):
≈ marks a conversion by molar mass, not a printed value. Where two headings read alike, the source gives them in different places.

Key:
[1] = system: Streptococus pneumoniae A9585; test: MIC, tube dilution technique, Streptococcus pneumoniae A9585; type: cell-based; conditions: overnight, Nutrient Broth, 37° C., read-out: Minimum Inhibitory Concentration
Text: (§1) The methoxymethyl esters of hetacephalexin and hetacefadroxil are the compounds of Formula I wherein R^1 is hydrogen and hydroxy, respectively.

[2] = system: Streptococcus pyogenes A9604; test: MIC, tube dilution technique, Streptococcus pyogenes A9604; type: cell-based
Text: (§2) […]. The methoxymethyl esters of hetacephalexin and hetacefadroxil are the compounds of Formula I wherein R^1 is hydrogen and hydroxy, respectively.

[3] = system: Staphylococcus aureus A9537; test: MIC, tube dilution technique, Staphylococcus aureus A9537; type: cell-based
Text: as §2

Escherichia coli A15119 = test: MIC, tube dilution technique, Escherichia coli A15119; type: cell-based
Text: as §2

[4] = system: Klebsiella pneumoniae A15130; test: MIC, tube dilution technique, Klebsiella pneumoniae A15130; type: cell-based
Text: as §2

Proteus mirabilis A9900 = test: MIC, tube dilution technique, Proteus mirabilis A9900; type: cell-based
Text: as §2

Proteus morganii A15153 = test: MIC, tube dilution technique, Proteus morganii A15153; type: cell-based; conditions: Morganella morganii, overnight, Nutrient Broth, 37° C., read-out: Minimum Inhibitory Concentration
Text: as §1

[5] = system: Serratia marcescens A20019; test: MIC, tube dilution technique, Serratia marcescens A20019; type: cell-based; conditions: overnight, Nutrient Broth, 37° C., read-out: Minimum Inhibitory Concentration
Text: as §1

[6] = system: Enterobacter cloacae A9659; test: MIC, tube dilution technique, Enterobacter cloacae A9659; type: cell-based; conditions: overnight, Nutrient Broth, 37° C., read-out: Minimum Inhibitory Concentration
Text: as §1

[7] = system: Enterobacter cloacae A9656; test: MIC, tube dilution technique, Enterobacter cloacae A9656; type: cell-based; conditions: overnight, Nutrient Broth, 37° C., read-out: Minimum Inhibitory Concentration
Text: as §1

[8] = system: Pseudomonas aeruginosa A9843A; test: MIC, tube dilution technique, Pseudomonas aeruginosa A9843A; type: cell-based; conditions: read-out: Minimum Inhibitory Concentration
Text: as §2

[9] = cited from earlier work
[10] = Antibiotic concentrations of dosing solutions retained for assay (cup-plate assay, CHCl3 extract); type: physicochemical; conditions: pH 7.4 phosphate buffer / CHCl3
Method: (§3) The dosing solutions were stored in an ice bath, used within 6 hours of preparation and an aliquot of each solution was retained for assay.
Dosing solutions were diluted with acetone:1% pH 6 phosphate buffer (1:1) and assayed similar to plasma.

[11] = Tissue levels and tissue penetration following oral administration; type: in vivo, male Sprague-Dawley rats; conditions: rat
Method: as §3
(§4) Rats in each treatment group were administered 1 ml of dosing solution per 100 g of body weight. The four additional control rats were administered a glycerol formal:deionized water (1:1) solution (1ml/100 g b.w.) to serve as a vehicle control group.
Four rats from each treatment group and one rat from the vehicle control group were killed 15, 30, 60 and 120 minutes after dosing. The rats were killed by exsanguination at the bifurcation of the femoral arteries while they were under light ether anesthesia. Approximately 10 ml of blood were obtained from each rat in 10 ml disposable syringes which had been previously rinsed with a 1% Na heparin in 0.9% NaCl solution. Each sample was immediately transferred from the syringe, after removing the needle, to a heparinized vacutainer tube, gently inverted a few times to mix the anticoagulant and centrifuged at 3000 rpm for 5 minutes in a refrigerated centrifuge at 4° C. to separate plasma. Plasma was transferred to a polypropylene snap-cap tube and stored at -20° C. until assayed. […]

[12] = rat, in vivo, po, 200 mg/kg
Method: as §3, §4
(§5) Four rats from each treatment group and one rat from the vehicle control group were killed 15, 30, 60 and 120 minutes after dosing. The rats were killed by exsanguination at the bifurcation of the femoral arteries while they were under light ether anesthesia. Approximately 10 ml of blood were obtained from each rat in 10 ml disposable syringes which had been previously rinsed with a 1% Na heparin in 0.9% NaCl solution. Each sample was immediately transferred from the syringe, after removing the needle, to a heparinized vacutainer tube, gently inverted a few times to mix the anticoagulant and centrifuged at 3000 rpm for 5 minutes in a refrigerated centrifuge at 4° C. to separate plasma. Plasma was transferred to a polypropylene snap-cap tube and stored at -20° C. until assayed. Lungs and brains were removed immediately after exsanguination, rinsed with ice-cold 0.9% NaCl solution, blotted dry with gauze, wrapped separately in pieces of aluminum foil, placed in dry ice for quick freezing and stored at -20° C. until assayed.
(§6) Plasma samples were diluted with an equal volume of acetone and further diluted with a 1:1 mixture of acetone:1% pH6 phosphate buffer to a concentration approximating the midpoint of the standard curve. Tissues were homogenized with 2 volumes of 1% pH 6 phosphate buffer in a glass homogenizer with a motor driven teflon pestle. Equal volumes of homogenate and acetone were mixed and, following centrifugation, the supernatant was diluted for assay in a manner similar to plasma. Dosing solutions were diluted with acetone:1% pH 6 phosphate buffer (1:1) and assayed similar to plasma.

[13] = rat, in vivo, po, 200 mg/kg; remark: listed apart in the source
Method: as §3, §4, §5, §6

in vivo [14] = conditions: rat, po, 200 mg/kg; for concentration at 0.5 h / concentration at 1 h / concentration at 2 h: Plasma Level
Method: as §3, §4, §5, §6

in vivo [15] = conditions: rat, po, 200 mg/kg, Brain Level
Method: as §3, §4, §5, §6

in vivo [16] = conditions: rat, po, 200 mg/kg; for Kp at 0.5 h / Kp at 1 h / Kp at 2 h / Kp at […]: Brain to Plasma Ratio
Method: as §3, §4, §5, §6

in vivo [17] = conditions: rat, po, 200 mg/kg, Lung Level
Method: as §3, §4, §5, §6

in vivo [18] = conditions: rat, po, 200 mg/kg
Method: as §3, §4, §5, §6

[19] = Streptococcus pyogenes A9604, overnight, Nutrient Broth, 37° C., read-out: Minimum Inhibitory Concentration
[20] = A9537, Staph aureus + 50% serum, A9537, overnight, Nutrient Broth, 37° C., read-out: Minimum Inhibitory Concentration
[21] = A9537, Staphylococcus aureus A9537, overnight, Nutrient Broth, 37° C., read-out: Minimum Inhibitory Concentration
[22] = Escherichia coli A15119, overnight, Nutrient Broth, 37° C., read-out: Minimum Inhibitory Concentration
[23] = Klebsiella pneumoniae A15130, overnight, Nutrient Broth, 37° C., read-out: Minimum Inhibitory Concentration
[24] = Proteus mirabilis A9900, overnight, Nutrient Broth, 37° C., read-out: Minimum Inhibitory Concentration

**Q.** What does the source list for `CC1=C(C(=O)O)N2C(=O)[C@@H](NC(=O)[C@H](N)c3ccc(O)cc3)[C@H]2SC1` [Cefadroxil, cefadroxil, reference compound]?
**A.** MIC [1]: 1 µg/mL (≈ 2.75 µM); MIC [2, 19]: 0.25 µg/mL (≈ 0.688 µM); MIC [3, 20]: 2 µg/mL; MIC [3, 21]: 1 µg/mL (≈ 2.75 µM); MIC (Escherichia coli A15119; [22]): 16 µg/mL (≈ 44 µM); MIC [4, 23]: 32 µg/mL (≈ 88.1 µM); MIC (Proteus mirabilis A9900; [24]): 8 µg/mL (≈ 22 µM); MIC (Proteus morganii A15153): > 125 µg/mL; MIC [5]: > 125 µg/mL; MIC [6]: > 125 µg/mL; MIC [7]: > 125 µg/mL; MIC [8]: > 125 µg/mL; lipid solubility ([9]; known parent compound): lipid-insoluble; ionization and water solubility ([9]; pH of blood plasma): ionized, water-soluble

**Q.** For `CC1=C(C(=O)O)N2C(=O)[C@@H](NC(=O)[C@H](N)c3ccccc3)[C@H]2SC1` [Cephalexin, cephalexin, reference compound], which MIC ([2]; Streptococcus pyogenes, A9604, read-out: Minimum Inhibitory Concentration) is on record?
**A.** 0.5 µg/mL (≈ 1.44 µM)

**Q.** What about the MIC ([3]; A9537, read-out: Minimum Inhibitory Concentration, Staph aureus + 50% serum, A9537, overnight, Nutrient Broth, 37° C.) of the same compound?
**A.** 2 µg/mL

**Q.** And the MIC ([3]; A9537, read-out: Minimum Inhibitory Concentration, Staphylococcus aureus A9537, overnight, Nutrient Broth, 37° C.)?
**A.** 1 µg/mL (≈ 2.88 µM)

**Q.** What about the MIC (Escherichia coli A15119; Escherichia coli, A15119, read-out: Minimum Inhibitory Concentration) of the same compound?
**A.** 8 µg/mL (≈ 23 µM)

**Q.** What about the MIC ([4]; Klebsiella pneumoniae, A15130, read-out: Minimum Inhibitory Concentration) of the same compound?
**A.** 16 µg/mL (≈ 46.1 µM)

**Q.** What about the MIC (Proteus mirabilis A9900; Proteus mirabilis, A9900, read-out: Minimum Inhibitory Concentration) of the same compound?
**A.** 4 µg/mL (≈ 11.5 µM)

**Q.** What about the MIC (Proteus morganii A15153) of the same compound?
**A.** > 125 µg/mL

**Q.** What about the MIC [5] of the same compound?
**A.** > 125 µg/mL

**Q.** What about the MIC [6] of the same compound?
**A.** > 125 µg/mL

**Q.** What about the MIC [7] of the same compound?
**A.** > 125 µg/mL

**Q.** What about the MIC [8] of the same compound?
**A.** > 125 µg/mL

**Q.** Which results are given for `COCOC(=O)C1=C(C)CSC2C(N3C(=O)[C@@H](c4ccc(O)cc4)NC3(C)C)C(=O)N12` (stereo partly drawn) [Methoxymethyl Ester of Hetacefadroxil]?
**A.** MIC [1]: 1 µg/mL (≈ 2.23 µM); MIC [2, 19]: 0.25 µg/mL (≈ 0.559 µM); MIC [3, 20]: 2 µg/mL; MIC [3, 21]: 1 µg/mL (≈ 2.23 µM); MIC (Escherichia coli A15119; [22]): 32 µg/mL (≈ 71.5 µM); MIC [4, 23]: 63 µg/mL (≈ 141 µM); MIC (Proteus mirabilis A9900; [24]): 8 µg/mL (≈ 17.9 µM); MIC (Proteus morganii A15153): 125 µg/mL (≈ 279 µM); MIC [5]: > 125 µg/mL; MIC [6]: > 125 µg/mL; MIC [7]: 125 µg/mL (≈ 279 µM); MIC [8]: > 125 µg/mL

**Q.** What does the source list for `COCOC(=O)C1=C(C)CSC2C(N3C(=O)[C@@H](c4ccccc4)NC3(C)C)C(=O)N12` (stereo partly drawn) [Methoxymethyl Ester of Hetacephalexin]?
**A.** MIC [1]: 1 µg/mL (≈ 2.32 µM); MIC [2, 19]: 0.25 µg/mL (≈ 0.579 µM); MIC [3, 20]: 2 µg/mL; MIC [3, 21]: 1 µg/mL (≈ 2.32 µM); MIC (Escherichia coli A15119; [22]): 8 µg/mL (≈ 18.5 µM); MIC [4, 23]: 16 µg/mL (≈ 37.1 µM); MIC (Proteus mirabilis A9900; [24]): 8 µg/mL (≈ 18.5 µM); MIC (Proteus morganii A15153): 125 µg/mL (≈ 290 µM); MIC [5]: > 125 µg/mL; MIC [6]: 125 µg/mL (≈ 290 µM); MIC [7]: 125 µg/mL (≈ 290 µM); MIC [8]: > 125 µg/mL; CHCl3 extractability / partition into CHCl3 [10]: all of the antibiotic activity was CHCl3 extractable; penetration of tissue cell membranes and blood-brain barrier compared with cephalexin [11]: more readily penetrates tissue cell membranes and crosses the blood-brain barrier; absorption [12]: rapidly absorbed; Lung to Plasma Ratio × 100, mean ([13]; 15 min): 82.6; Lung to Plasma Ratio × 100, mean ([13]; 30 min): 60.0; Lung to Plasma Ratio × 100, mean ([13]; 60 min): 67.2; Lung to Plasma Ratio × 100, mean ([13]; 120 min): 33.0; Tmax (in vivo [14]): ≤ 15 min; concentration at 0.5 h (in vivo [14]): 40000 ng/mL; concentration at 1 h (in vivo [14]): 36000 ng/mL; concentration at 2 h (in vivo [14]): 11000 ng/mL; concentration at 0.5 h (in vivo [14]; mean): 45500 ng/mL; concentration at 1 h (in vivo [14]; mean): 34200 ng/mL; concentration at 2 h (in vivo [14]; mean): 14500 ng/mL; concentration at 0.5 h (in vivo [15]): 1700 ng/g; concentration at 1 h (in vivo [15]): 1700 ng/g; concentration at 2 h (in vivo [15]): 500 ng/g; concentration at 0.5 h (in vivo [15]; mean): 2200 ng/g; concentration at 1 h (in vivo [15]; mean): 1800 ng/g; concentration at 2 h (in vivo [15]; mean): 500 ng/g; Tmax (in vivo [16]): ~15 min; Kp at 0.5 h (in vivo [16]): 0.042; Kp at 1 h (in vivo [16]): 0.047; Kp at 2 h (in vivo [16]): 0.046; Kp at […] (in vivo [16]): 0.056; Kp at 0.5 h (in vivo [16]; mean): 0.047; Kp at 1 h (in vivo [16]; mean): 0.051; Kp at 2 h (in vivo [16]; mean): 0.035; Kp at […] (in vivo [16]; mean): 0.058; Kp (in vivo [16]; brain peak as percent of plasma level): ~0.06; concentration at 0.5 h (in vivo [17]): 23000 ng/g; concentration at 1 h (in vivo [17]): 22000 ng/g; concentration at 2 h (in vivo [17]): 4100 ng/g; concentration at 0.5 h (in vivo [17]; mean): 27000 ng/g; concentration at 1 h (in vivo [17]; mean): 22300 ng/g; concentration at 2 h (in vivo [17]; mean): 4700 ng/g; Kp (in vivo [18]): ~0.83; Tmax (in vivo [18]): ~15 min
